The subject of data set [1] is GSC-18. The data set is described as follows: Inhibition of colony formation in human GSC-18 cells assessed as decrease in number of tumor spheres at 15 uM after 2 weeks by crystal violet staining based assay. The data set is classed as functional, cell-based.
The test system of data set [2] is GSC-3. The experiment in a line: Inhibition of colony formation in human GSC-3 cells assessed as tumor spheres damage at 15 uM after 2 weeks by crystal violet staining based assay. In kind it is functional, cell-based.
Data set [3] has as its system GSC-3. The experiment in a line: Inhibition of colony formation in human GSC-3 cells assessed as decrease in number of tumor spheres at 15 uM after 2 weeks by crystal violet staining based assay. In kind it is functional, cell-based.
For data set [4], the system named is GSC-18. The data set is described as follows: Inhibition of colony formation in human GSC-18 cells assessed as tumor spheres damage at 15 uM after 2 weeks by crystal violet staining based assay. The data set is classed as functional, cell-based.
Data set [5] in a line: (§1) Cytotoxicity against human GSC18 cells assessed as reduction in cell viability after 72 hrs by MTS assay. The data set is classed as functional, cell-based, GSC-18. The following applies: GSC18, 72 h. A general note: Tetrazolium dyes change colour on reduction, which living cells bring about.
Data set [6] relates to HUVEC. The data set is described as follows: Cytotoxicity against HUVEC assessed as inhibition of cell growth at 20 uM after 5 days. To be noted: human, 120 h, time 5 day. The data set is classed as cell-based.
The test system of data set [7] is HUVEC. The data set is described as follows: Cytotoxicity against HUVEC assessed as reduction in cell viability after 72 hrs by MTS assay. In kind it is cell-based, Homo sapiens. To be noted: for IC50: Homo sapiens, HUVEC.
Data set [8] has as its system HEK-293T. The experiment in a line: Cytotoxicity against human 293T cells assessed as inhibition of cell growth at 20 uM after 5 days. The following applies: 120 h, time 5 day. In kind it is cell-based.
For data set [9], the system named is GSC-18. The experiment in a line: Cytotoxicity against human GSC18 cells assessed as inhibition of cell growth at 20 uM after 5 days. In kind it is functional, cell-based. To be noted: time 5.0 day.
Data set [10] concerns T98G. The experiment in a line: Cytotoxicity against human T98G assessed as reduction in cell viability after 72 hrs by MTS assay. In kind it is cell-based.
Data set [11] relates to GSC-3. The experiment in a line: Cytotoxicity against human GSC3 cells assessed as inhibition of cell growth at 20 uM after 5 days. In kind it is functional, cell-based. The following applies: time 5.0 day.
Data set [12] can be described thus: (§2) Cytotoxicity against human GSC3 cells assessed as reduction in cell viability after 72 hrs by MTS assay. The data set is classed as functional, cell-based. The following applies: GSC-3, 72 h.
Data set [13] has as its system U-87 MG. The experiment in a line: Cytotoxicity against human U-87 MG cells assessed as inhibition of cell growth at 20 uM after 5 days. In kind it is cell-based. To be noted: u-87mg atcc, 120 h, time 5 day.
Data set [14] deals with T98G. The experiment in a line: Cytotoxicity against human T98G cells assessed as inhibition of cell growth at 20 uM after 5 days. To be noted: 120 h, time 5 day. The data set is classed as cell-based.
The test system of data set [15] is U-87 MG. The data set is described as follows: Cytotoxicity against human U-87 MG cells assessed as reduction in cell viability after 72 hrs by MTS assay. In kind it is cell-based, U-87MG ATCC.
The test system of data set [16] is HEK-293T. The experiment in a line: Cytotoxicity against human 293T cells assessed as reduction in cell viability after 72 hrs by MTS assay. The data set is classed as cell-based. The following applies: for IC50: Homo sapiens, HEK-293T.
Data set [17] has as its system GSC-18. The data set is described as §1. In kind it is functional, cell-based.
Data set [18] has as its system GSC-3. The data set is described as §2. The data set is classed as functional, cell-based.

The structures appear in SMILES notation. The source made the active and inactive calls. The rule behind the calls is not given here.

As to `Cn1nnc2c(C(N)=O)ncn2c1=O`, the inhibition result in the data set with GSC-18 [1] and in the data set with GSC-3 [3] was “Active” in each case. The outcome in the data set on GSC-3 [2] and in the data set with GSC-18 [4] was Active.

In the case of `CC(=O)O[C@H]1C(=O)[C@@]2(C)[C@H]([C@H](OC(=O)c3ccccc3)[C@]3(O)C[C@H](OC(=O)[C@H](O)[C@@H](NC(=O)c4ccccc4)c4ccccc4)C(C)=C1C3(C)C)[C@]1(OC(C)=O)CO[C@@H]1C[C@@H]2O` [PACLITAXEL], the IC50 (in general, the point on the concentration scale where inhibition reaches its midpoint) in data set [5] turned out to be 9600 nM; in the data set on HUVEC [7], 5 nM; in the data set on T98G [10] (Homo sapiens, T98G), 12 nM; in [12], 11300 nM; in the data set with U-87 MG [15] (Homo sapiens, U-87 MG), 8 nM; in the data set with HEK-293T [16], 10 nM. The Activity entry with HUVEC [6], in the data set on HEK-293T [8], in the data set on U-87 MG [13] and with T98G [14] was “Toxic” in each case. The outcome in the data set with GSC-18 [9] and in the data set on GSC-3 [11] was Active.

As to `C[C@@H]1CC[C@@]2(OC1)O[C@H]1C[C@H]3[C@@H]4CC=C5C[C@@H](O[C@@H]6O[C@H](CO)[C@@H](O[C@@H]7O[C@@H](C)[C@H](O[C@@H]8O[C@@H](C)[C@H](O)[C@@H](O)[C@H]8O)[C@@H](O)[C@H]7O)[C@H](O)[C@H]6O[C@@H]6O[C@@H](C)[C@H](O)[C@@H](O)[C@H]6O)CC[C@]5(C)[C@H]4CC[C@]3(C)[C@H]1[C@@H]2C` [PENNOGENIN RAHAMNOSYL CHACOTRIOSIDE], the outcome in the data set with GSC-18 [17] and in the data set with GSC-3 [18] was inactive. In addition, the IC50 in the data set on HUVEC [7] and with HEK-293T [16] was 1830 nM throughout.

For `CO[C@]1(CC[C@@H](C)CO[C@@H]2O[C@H](CO)[C@@H](O)[C@H](O)[C@H]2O)O[C@H]2C[C@H]3[C@@H]4CC=C5C[C@@H](O[C@@H]6O[C@H](CO)[C@@H](O[C@@H]7O[C@@H](C)[C@H](O)[C@@H](O)[C@H]7O)[C@H](O)[C@H]6O[C@@H]6O[C@@H](C)[C@H](O)[C@@H](O)[C@H]6O)CC[C@]5(C)[C@H]4CC[C@]3(C)[C@H]2[C@@H]1C` [METHYLPROTODIOSCIN], the IC50 in data set [5] and in [12] was 1820 nM throughout.

Consider `C[C@@H]1O[C@@H](O[C@H]2[C@H](O[C@H]3CC[C@@]4(C)C(=CC[C@H]5[C@@H]6C[C@@H]7O[C@@]8(OC[C@H](CO)CC8O[C@H]8O[C@@H](CO)[C@H](O)[C@@H](O)[C@@H]8O)[C@@H](C)[C@@H]7[C@@]6(C)CC[C@@H]54)C3)O[C@H](CO)[C@@H](O[C@@H]3O[C@@H](C)[C@H](O)[C@@H](O)[C@H]3O)[C@@H]2O)[C@H](O)[C@H](O)[C@H]1O` (stereo partly specified), for which the result in the data set with GSC-18 [17] and in the data set with GSC-3 [18] was inactive.

`C[C@@H]1CC[C@@]2(OC1)O[C@H]1C[C@H]3[C@@H]4CC=C5C[C@@H](O[C@@H]6O[C@H](CO)[C@@H](O[C@@H]7O[C@@H](C)[C@H](O)[C@@H](O)[C@H]7O)[C@H](O)[C@H]6O[C@@H]6O[C@@H](C)[C@H](O)[C@@H](O)[C@H]6O)CC[C@]5(C)[C@H]4CC[C@]3(C)[C@H]1[C@@H]2C`: the result in the data set on GSC-18 [17] and in the data set with GSC-3 [18] was Active.

Consider `C[C@@H]1CC[C@@]2(OC1)O[C@H]1C[C@H]3[C@@H]4CC=C5C[C@@H](O[C@@H]6O[C@H](CO)[C@@H](O)[C@H](O)[C@H]6O[C@@H]6O[C@@H](C)[C@H](O)[C@@H](O)[C@H]6O)CC[C@]5(C)[C@H]4CC[C@]3(C)[C@H]1[C@@H]2C` [OPHIOPOGONIN C], for which the IC50 in data set [5] and in data set [12] was 780 nM in each case. The Activity entry with HUVEC [7] (human, huvec, time 72 hrs) was “Non-Toxic”; in the data set with T98G [10] (human, t98g, time 72 hrs), “Non-Toxic”; with U-87 MG [15] (human, u-87mg atcc, time 72 hrs), “Non-Toxic”; in the data set with HEK-293T [16] (human, hek-293t, time 72 hrs) it was “Non-Toxic”.

Turning to `C[C@H](CC[C@@]1(O)O[C@H]2C[C@H]3[C@@H]4CC=C5C[C@@H](O[C@@H]6O[C@H](CO)[C@@H](O[C@@H]7O[C@@H](C)[C@H](O)[C@@H](O)[C@H]7O)[C@H](O)[C@H]6O[C@@H]6O[C@@H](C)[C@H](O)[C@@H](O)[C@H]6O)CC[C@]5(C)[C@H]4CC[C@]3(C)[C@H]2[C@@H]1C)CO[C@@H]1O[C@H](CO)[C@@H](O)[C@H](O)[C@H]1O`, the IC50 in [5] is 1090 nM; in the data set on HUVEC [7], 3220 nM; in [12], 1030 nM; in the data set with HEK-293T [16] it was 3220 nM.

(Values after ChEMBL document CHEMBL4732125, “Structures/cytotoxicity/selectivity relationship of natural steroidal saponins against GSCs and primary mechanism of tribulosaponin A” (Eur J Med Chem, 2021).)
